Publication PMC6155365, “A Phase 3 Study of Micafungin Versus Amphotericin B Deoxycholate in Infants With Invasive Candidiasis” (The Pediatric Infectious Disease Journal, 2018)
Values after ≈ are worked out from the molar mass of the structure shown. Where two headings read alike, the source gives them in different places. *1 amine or outer side, *2 acyl side, *3 side chain or, on linkers, in order; H or OH if unused. Where a SMILES comes first, the peptide text is derived from it. Bridges are numbered along the chain shown (N, C = ends). [ ]: non-standard residue; d: D form. The star is where a group is joined. hTyr(3S-OH,4S-OH,3'-OSO3H) = N[C@H](C(=O)O)[C@H](O)[C@@H](O)c1ccc(O)c(OS(=O)(=O)O)c1; Orn(4R-OH,5R-OH) = O=C([C@H](C[C@@H](O)[C@@H](O)N[*:3])N[*:1])[*:2]; Pro(3S-OH,4S-Me) = C[C@H]1CN[C@H](C(=O)O)[C@H]1O; X1 = CCCCCOc1ccc(-c2cc(-c3ccc(C(=O)*)cc3)no2)cc1; Gln(3R-OH) = NC(=O)C[C@@H](O)[C@H](N)C(=O)O; Hyp = O=C(O)[C@@H]1C[C@@H](O)CN1

Legend:
[1] = Adverse events, safety analysis set; conditions: for Early discontinuation of treatment: AEs / Electrolyte supplementation received: MCA n = 20, AmB-D n = 10; for Deaths: all deaths reported from the study; for Magnesium supplementation / Potassium supplementation: in vivo; for TEAE anemia / TEAE thrombocytopenia: irrespective of relatedness to study drug; for Drug-related TEAEs / Drug-related TEAEs leading to death / Drug-related serious TEAEs: possible or probable, as assessed by the investigator; for Serious TEAEs / TEAEs: safety analysis set; for TEAEs: MCA N = 20 (10 mg/kg/d), AmB-D N = 10 (1 mg/kg/d)
[2] = system: C. glabrata; experiment: In vitro susceptibility MIC, CLSI M27-A3; format: cell-based, Candida glabrata; conditions: Nakaseomyces glabratus; baseline isolate, persistent infection in AmB-D group
Experimental: (§1) All fungal isolates were identified to the genus and species level using standard techniques. Briefly, each isolate was subcultured in CHROMagar Candida (Becton Dickinson and Company, Sparks, MD) and molecular identification by sequencing of the internal transcribed spacer region and/or 28S ribosomal subunit. In vitro susceptibility testing was performed on all fungal isolates collected during the study to calculate the minimum inhibitory concentrations (MICs) according to Clinical Laboratory Standards Institutes (CLSI) methodology (M27-A3) and European Committee on Antimicrobial Susceptibility Testing (EUCAST) methodology (EDef7.1).[24],[25]

[3] = in vivo
[4] = system: Candida spp. (invasive candidiasis); experiment: Phase 3 randomized double-blind study, efficacy in infants with proven invasive candidiasis (NCT00815516); format: in vivo; conditions: for Early discontinuation of treatment: lack of efficacy / Infants alive at 1 week after last dose but not fungal free: MCA n = 20, AmB-D n = 10; for Positive clinical response: at end of study and 1 week after last dose, infants with signs at baseline (MCA 18, AmB-D 10); for Infants alive at 1 week after last dose but not fungal free: did not meet primary efficacy end point
Experimental: This was a phase 3, randomized, double-blind, multicenter, parallel-group, noninferiority study (ClinicalTrials.gov identifier: […] The follow-up was performed to capture emergent and recurrent fungal infections, to obtain a final safety evaluation and to check for resolution of those IC episodes that had not resolved by the end of treatment. […] An independent Data Review Panel reviewed and confirmed the diagnosis of IC and evaluated the efficacy outcome for each subject. Drug safety was evaluated by an unblinded Data Safety and Monitoring Board. […] FFS was defined as an infant alive and fungal free with no requirement for continued treatment with alternative antifungal therapy. […] Responses were defined as follows: complete response (resolution of all attributable signs related to fungal infection); partial response (improvement in attributable signs related to the fungal infection); stabilization (minor improvement or no change in attributable signs related to the fungal infection and the infant continued on therapy without deterioration); progression (deterioration in attributable signs related to the fungal infection or death presumably related to fungal infection). […] Persistence was defined by continued isolation or histologic documentation from a normally sterile site. […] Following positive Candida cultures, end-organ dissemination was assessed using abdominal ultrasound and/or computed tomography scanning, echocardiogram, head imaging with ultrasound, magnetic resonance imaging or computed tomography scanning or ophthalmoscopy. An emergent fungal infection was defined as a non-Candida invasive fungal infection detected at any time during the study or any invasive fungal infection detected >96 hours postbaseline involving a Candida spp. other than those detected at baseline.

[5] = Clinical laboratory test findings, safety analysis set; format: in vivo, infants; conditions: postbaseline increase from baseline
[6] = system: C. albicans; experiment: In vitro susceptibility MIC, EUCAST EDef7.1; format: cell-based, Candida albicans; conditions: for MIC: Candida albicans
Experimental: as §1

[7] = system: C. glabrata; experiment: In vitro susceptibility MIC, EUCAST EDef7.1; format: cell-based, Candida glabrata; conditions: Nakaseomyces glabratus; baseline isolate, persistent infection in AmB-D group
Experimental: as §1

[8] = system: C. albicans; experiment: In vitro susceptibility MIC, CLSI M27-A3; format: cell-based; conditions: Candida albicans
Experimental: as §1

[9] = adults, 100 mg/d (approximately 2 mg/kg); cited from earlier work
From the text: AmB-D has been the standard of treatment for neonatal IC in the United States for many years,[7] but nephrotoxicity is a dose-limiting toxicity.[10] […] The use of fluconazole in infants may be limited because of the resistance of some Candida spp., its frequent use as prophylaxis in extremely premature infants, its poor activity against fungal biofilms and the high doses required to reach therapeutic concentrations.[9],[ ...

[10] = Population PK of MCA, linear 2-compartment model with body weight-based allometric scaling; format: in vivo; conditions: Infants (this study), mean ± SD
Experimental: Up to 3 PK blood samples (≤300 µL) were collected from infants who participated in the PK portion of the study. A population PK approach was used to define the PK profile of MCA. A linear 2-compartment population PK model with body weight–based allometric scaling was developed in neonatal and pediatric patient populations by amending a previous model[19],[26] and including data from the current study in addition to 2 previous phase 1 studies and 1 previous phase 3 study in infants.[20],[27],[28] Individual post hoc estimates of PK parameters, simulated area under the curve (AUC) at steady state and maximum plasma concentration at the end of 2-hour infusion at once-daily dose of MCA 10 mg/kg were derived based on the model.
A population PK model was developed using data from this and 8 other studies (data on file at Astellas). A 2-compartment model with body weight–based allometric scaling and first-order elimination adequately described MCA PK data regardless of age. In this study, PK data were collected from 12 of 30 study participants (Table 2).

[11] = system: C. parapsilosis; experiment: In vitro susceptibility MIC, EUCAST EDef7.1; format: cell-based, Candida parapsilosis; conditions: baseline isolate
Experimental: as §1

[12] = system: C. parapsilosis; experiment: In vitro susceptibility MIC, CLSI M27-A3; format: cell-based, Candida parapsilosis
Experimental: as §1

[13] = system: invasive candidiasis; conditions: patients <16 years with IC; MCA 2 mg/kg, liposomal amphotericin B 3 mg/kg; cited from earlier work
Experimental: High rates of survival and successful treatment responses to MCA among patients <18 years of age with IC have been reported in prospective, observational studies.[32],[33] Success rates in pediatric studies are similar to the findings of our study in infants. For example, in a pediatric substudy from a randomized, double-blind study comparing MCA (2 mg/kg) with liposomal amphotericin B (3 mg/kg) in patients <16 years of age with IC, the investigators reported similar treatment success rates after MCA (defined as both a clinical and mycologic response at the end of therapy; 73% compared with 76 ...

[14] = premature and nonpremature infants <2 years, 9 clinical trials; cited from earlier work
From the text: There was a slightly greater degree of nephrotoxicity at >25% baseline caused by AmB-D, although AmB-D-induced nephrotoxicity, defined as elevated serum creatinine, in the infant is usually reversible.[37] In understanding the relative tolerability of AmB-D in infants within the neonatal intensive care unit compared with older children, there are several hypotheses, including a greater nephronal reserve or the attention to appropriate hy ...

[15] = 216 h, follow-up cultures on day 9, AmB-D group infant
[16] = baseline isolate, persistent infection in AmB-D group

Row | Compound | Early discontinuation of treatment: AEs [1] | Electrolyte supplementation received [1] | TEAEs: Blood and lymphatic system disorders ([1]; MedDRA system organ class) | TEAEs: General disorders and administration site conditions ([1]; MedDRA system organ class) | TEAEs: Investigations ([1]; MedDRA system organ class) | TEAEs: Metabolism and nutrition disorders ([1]; MedDRA system organ class) | TEAEs: Respiratory, thoracic and mediastinal disorders ([1]; MedDRA system organ class) | TEAEs: Skin and subcutaneous tissue disorders ([1]; MedDRA system organ class) | TEAEs: Vascular disorders ([1]; MedDRA system organ class) | Deaths [1] | Magnesium supplementation [1] | Potassium supplementation [1] | TEAE anemia [1] | TEAE thrombocytopenia [1] | Drug-related TEAEs [1] | Drug-related TEAEs leading to death [1] | Drug-related serious TEAEs [1] | Serious TEAEs [1] | TEAEs [1] | Early discontinuation of treatment: lack of efficacy [4] | other results
1 | C[C@@H]1[C@H](O)[C@@H](C)/C=C/C=C/C=C/C=C/C=C/C=C/C=C/[C@H](O[C@@H]2O[C@H](C)[C@@H](O)[C@H](N)[C@@H]2O)C[C@@H]2O[C@](O)(C[C@@H](O)C[C@@H](O)[C@H](O)CC[C@@H](O)C[C@@H](O)CC(=O)O[C@H]1C)C[C@H](O)[C@H]2C(=O)O [AmB-D, Amphotericin B deoxycholate] | 3 (30%) n (%) | 5 (50%) n (%) | 6 (60) n (%) | 5 (50) n (%) | 3 (30) n (%) | 2 (20) n (%) | 3 (30) n (%) | 2 (20) n (%) | 3 (30) n (%) | 1 (10) n (%) | 2 (20%) n (%) | 3 (30%) n (%) | 3 (30%) n (%) | 3 (30%) n (%) | 5 (50) n (%) | 0 n (%) | 1 (10) n (%) | 7 (70) n (%) | 9 (90) n (%) | 1 (10%) n (%) | MIC [2]: 1 µg/mL (≈ 1.08 µM); TEAEs: Infections and infestations [3]: 3 (30) n (%); Clinical response: Partial ([4]; at 1 week after last dose of study drug, infants with signs at baseline): 0 n/N (%); Positive clinical response [4]: 70%; Infants alive at 1 week after last dose but not fungal free [4]: 2 (20%) n (%); Clinical response: Partial ([4]; end of study (30 days after last dose)): 0 n/N (%); Emergent fungal infections through end of study ([4]; full analysis set): 0 n/N (%); Serum creatinine increase >100% [5]: 0 n/N (%); MIC [6, 15]: 0.25 µg/mL (≈ 0.271 µM); MIC [6, 16]: 0.5 µg/mL (≈ 0.541 µM); MIC, EUCAST ([6]; follow-up cultures on day 9, AmB-D group infant): 0.5 µg/mL (≈ 0.541 µM); MIC [7]: 0.5 µg/mL (≈ 0.541 µM); MIC [8, 15]: 1 µg/mL (≈ 1.08 µM); MIC [8, 16]: 1 µg/mL (≈ 1.08 µM)
2 | CCCCCOc1ccc(-c2cc(-c3ccc(C(=O)N[C@H]4C[C@@H](O)[C@@H](O)NC(=O)[C@@H]5[C@@H](O)[C@@H](C)CN5C(=O)[C@H]([C@H](O)CC(N)=O)NC(=O)[C@H]([C@H](O)[C@@H](O)c5ccc(O)c(OS(=O)(=O)O)c5)NC(=O)[C@@H]5C[C@@H](O)CN5C(=O)[C@H]([C@@H](C)O)NC4=O)cc3)no2)cc1 [MCA, micafungin] (X1-[Orn(4R-OH,5R-OH)]T[Hyp][hTyr(3S-OH,4S-OH,3'-OSO3H)][Gln(3R-OH)][Pro(3S-OH,4S-Me)]; lactam 1-C) | 3 (15%) n (%) | 6 (30%) n (%) | 10 (50) n (%) | 3 (15) n (%) | 5 (25) n (%) | 1 (5) n (%) | 0 n (%) | 1 (5) n (%) | 3 (15) n (%) | 3 (15) n (%) | 3 (15%) n (%) | 2 (10%) n (%) | 9 (45%) n (%) | 2 (10%) n (%) | 11 (55) n (%) | 0 n (%) | 6 (30) n (%) | 12 (60) n (%) | 18 (90) n (%) | 1 (5%) n (%) | TEAEs: Infections and infestations ([1]; MedDRA system organ class): 11 (55) n (%); SAE anemia ([1]; most common SAE in the MCA group): 4 (20%) n (%); Mean exposure (AUC) [9]: 100000 ng·h/mL; CL ([10]; N = 12, MCA 10 mg/kg iv, individual post hoc estimates): 0.068 ± 0.039 (0.022–0.147) L/h; CL ([10]; N = 12, MCA 10 mg/kg iv): 0.487 ± 0.200 (0.225–0.876) mL/min/kg; Vss ([10]; N = 12, MCA 10 mg/kg iv): 0.480 ± 0.159 (0.306–0.799) L/kg; t1/2 ([10]; N = 12, MCA 10 mg/kg iv): 12.25 ± 2.87 (7.51–16.92) h; AUCss ([10]; N = 12, simulated at 10 mg/kg once daily, 2-hour infusion): 399.32 ± 163.88 (190.33–742.30) μg·h/mL; C2h (steady-state plasma concentration at end of 2-hour infusion) ([10]; N = 12, simulated at 10 mg/kg, 2-hour infusion): 31.06 ± 10.53 (17.01–49.69) μg/mL; MCA MIC, EUCAST ([11]; persistent infection 1 of 2 in MCA group): 1 µg/mL; MCA MIC, EUCAST ([11]; the other persistent infection in MCA group): 0.5 µg/mL; Positive clinical response [4]: 61%; Infants alive at 1 week after last dose but not fungal free [4]: 5 (25%) n (%); MCA MIC, CLSI ([12]; baseline isolate, persistent infection 1 of 2 in MCA group): 1 µg/mL; MCA MIC, CLSI ([12]; baseline isolate, the other persistent infection in MCA group): 1 µg/mL; MCA MIC, CLSI ([12]; follow-up isolates collected on day 19, both MCA-treated infants): 1 µg/mL; Treatment success rate (clinical and mycologic response at end of therapy) [13]: 73%; Treatment-related TEAEs, patients [14]: 23%
